Assays:
Assay in all cases: relative viability (nuclei count vs DMSO), 5 days (fraction); higher = more cells survive
[1] = compound: COc1cc2nc(N3CCCN(C)CC3)nc(NC3CCN(Cc4ccccc4)CC3)c2cc1OC + Cc1nc(NC(=O)N2CCC[C@H]2C(N)=O)sc1-c1ccnc(C(C)(C)C(F)(F)F)c1 [Alpelisib] (partner 2 µM)
Outline: (§1)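 Nuclei were stained with Hoechst during a one-step fixation (final 0.05% Triton X-100, 1% formaldehyde, 1 ug/ml Hoechst) carried out 5 days after dosing, then counted on 4× images. The cells, lung cancer lines in 1536-well plates, had been dosed by pin tool the day after seeding with one drug alone or a fixed anchor-drug dose plus five library-drug doses (not always all listed) in √10 steps. Relative viability is the nuclei count in treated wells divided by that in vehicle wells, and each value is the median of duplicate plates.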

[2] = compound: COc1cc2nc(N3CCCN(C)CC3)nc(NC3CCN(Cc4ccccc4)CC3)c2cc1OC + Cc1nc(Nc2ncc(C(=O)Nc3c(C)cccc3Cl)s2)cc(N2CCN(CCO)CC2)n1 [Dasatinib] (partner 0.075 µM)
Outline: as §1

AZD6482 + Foretinib = compound: Cc1cc([C@@H](C)Nc2ccccc2C(=O)O)c2nc(N3CCOCC3)cc(=O)n2c1 [AZD6482] + COc1cc2c(Oc3ccc(NC(=O)C4(C(=O)Nc5ccc(F)cc5)CC4)cc3F)ccnc2cc1OCCCN1CCOCC1 [Foretinib] (partner 0.25 µM)
Outline: as §1

AZD6482 + Phenformin = compound: Cc1cc([C@@H](C)Nc2ccccc2C(=O)O)c2nc(N3CCOCC3)cc(=O)n2c1 [AZD6482] + N=C(N)NC(=N)NCCc1ccccc1 [Phenformin] (partner 250 µM)
Outline: as §1

Cell Line | relative viability ([1]; first compound 0.2 µM) | relative viability ([1]; first compound 0.6325 µM) | relative viability ([1]; first compound 2 µM) | relative viability ([1]; first compound 6.325 µM) | relative viability ([2]; first compound 0.2 µM) | relative viability ([2]; first compound 0.6325 µM) | relative viability ([2]; first compound 2 µM) | relative viability ([2]; first compound 6.325 µM) | relative viability (AZD6482 + Foretinib; first compound 0.08 µM) | relative viability (AZD6482 + Foretinib; first compound 0.253 µM) | relative viability (AZD6482 + Foretinib; first compound 0.8 µM) | relative viability (AZD6482 + Foretinib; first compound 2.53 µM) | relative viability (AZD6482 + Foretinib; first compound 8 µM) | relative viability (AZD6482 + Phenformin; first compound 0.08 µM) | relative viability (AZD6482 + Phenformin; first compound 0.253 µM) | relative viability (AZD6482 + Phenformin; first compound 0.8 µM) | relative viability (AZD6482 + Phenformin; first compound 2.53 µM) | relative viability (AZD6482 + Phenformin; first compound 8 µM)
LOU-NH91 | 0.736 | 0.755 | 0.588 | 0.642 | 0.525 | 0.686 | 0.439 | 0.59 | 0.826 | 0.846 | 0.993 | 0.603 | 0.677 | 0.546 | 0.718 | 0.737 | 0.46 | 0.556
LU99A | 0.539 | 0.458 | 0.454 | 0.479 | 0.588 | 0.552 | 0.47 | 0.433 | 0.829 | 0.828 | 0.77 | 0.65 | 0.633 | 0.903 | 0.848 | 0.791 | 0.691 | 0.813
LXF-289 | 1.04 | 0.964 | 1.06 | 0.986 | 0.263 | 0.212 | 0.252 | 0.213 | 0.912 | 0.916 | 0.977 | 0.938 | 0.831 | 0.491 | 0.471 | 0.51 | 0.452 | 0.307
NCI-H23 | 0.623 | 0.693 | 0.775 | 0.675 | 0.786 | 0.628 | 0.859 | 0.876 | 0.976 | 0.856 | 0.922 | 0.639 | 0.5 | 0.789 | 0.785 | 0.84 | 0.628 | 0.658
NCI-H322M | 0.741 | 0.814 | 0.781 | 0.68 | 0.258 | 0.281 | 0.274 | 0.26 | 0.823 | 0.847 | 0.897 | 0.543 | 0.738 | 0.705 | 0.673 | 0.712 | 0.414 | 0.537
NCI-H358 | 0.935 | 0.888 | 1.01 | 0.533 | 0.163 | 0.205 | 0.146 | 0.171 | 0.484 | 0.706 | 0.679 | 0.407 | 0.489 | 0.305 | 0.323 | 0.317 | 0.163 | 0.233
NCI-H441 | 0.919 |  | 0.601 | 0.655 | 0.602 | 0.616 | 0.532 | 0.599 | 0.852 | 0.806 | 1.21 |  | 0.87 | 0.677 | 0.679 | 0.967 |  | 0.468
NCI-H460 | 0.481 | 0.483 | 0.42 | 0.242 | 0.532 | 0.534 | 0.415 | 0.43 | 1.03 | 0.977 | 1 | 0.828 | 0.719 | 0.492 | 0.512 | 0.535 | 0.326 | 0.182
NCI-H520 | 0.947 | 0.98 | 0.867 | 0.452 | 0.217 | 0.228 | 0.252 | 0.187 | 0.423 | 0.661 | 0.493 | 0.203 | 0.304 | 0.402 | 0.283 | 0.285 | 0.166 | 0.225
NCI-H596 | 0.616 | 0.458 | 0.498 | 0.44 | 0.659 | 0.652 | 0.638 | 0.654 | 0.84 | 0.853 | 0.766 | 0.635 | 0.599 | 0.658 | 0.576 | 0.636 | 0.691 | 0.737
NCI-H647 | 1.12 | 1.13 | 1.18 | 0.448 | 0.201 | 0.233 | 0.192 | 0.149 | 0.86 | 1.3 | 0.946 | 0.721 | 0.623 | 0.417 | 0.473 | 0.399 | 0.262 | 0.324
NCI-H650 | 1.06 | 0.997 | 1.18 | 1 | 0.48 | 0.472 | 0.441 | 0.38 | 1.02 |  | 0.978 | 0.651 | 0.704 | 0.467 |  | 0.431 | 0.292 | 0.31
NCI-H661 | 0.556 | 0.64 | 0.809 | 0.774 | 0.957 | 0.955 | 0.966 | 0.83 | 0.962 | 1.06 | 1.14 | 0.723 | 0.815 | 0.285 | 0.274 | 0.297 | 0.245 | 0.216
NCI-H727 | 0.633 | 0.615 | 0.593 | 0.328 | 0.302 | 0.461 | 0.452 | 0.322 | 0.828 | 0.862 | 1.03 | 0.786 | 0.797 | 0.445 | 0.683 | 0.465 | 0.488 | 0.315
NCI-H838 | 1.04 | 1.14 | 1.09 | 0.853 | 0.316 | 0.319 | 0.33 | 0.237 | 0.855 | 0.964 | 0.873 | 0.581 | 0.469 | 0.459 | 0.519 | 0.497 | 0.263 | 0.397
NCI-H1355 | 0.83 | 0.861 | 0.856 | 0.805 | 0.761 | 0.777 | 0.787 | 0.783 | 0.769 | 0.812 | 0.962 | 0.713 | 0.641 | 0.41 | 0.386 | 0.414 | 0.308 | 0.329
NCI-H1395 | 1.1 | 1.04 | 1.07 | 0.589 | 0.459 | 0.425 | 0.384 | 0.357 | 0.757 | 0.663 | 0.687 | 0.518 | 0.555 | 0.388 | 0.385 | 0.438 | 0.347 | 0.302
NCI-H1437 | 0.995 | 0.971 | 1.12 | 0.828 | 0.48 | 0.454 | 0.492 | 0.384 | 1.2 | 1.33 | 1.31 | 1.13 | 0.923 | 0.268 | 0.287 | 0.262 | 0.223 | 0.261

— the supplement of paper PMC10307832
